A short description of data set [1]: Biodistribution of [^211At]1 and [^125I]2 in normal mice with ibuprofen or IPBA as albumin-binding inhibitor. To be noted: inhibitor at 1 h postinjection, 4 h postinjection of radiotracer. As to the method: To evaluate the effects of albumin-binding inhibitors in normal mice, [^211At]1 (37 kBq) and [^125I]2 (37 kBq) were intravenously coadministered. […] The total blood albumin (1.1 µmol) in normal mice was calculated from the albumin concentration (3.0 g/dL ≈ 455 µM) in blood, which was informed from Japan SLC, Inc., total blood volume (2.5 mL) as 8% of body weight, and the molecular weight of albumin as 66,000 g/mol. […]
Table S1. Biodistribution of radioactivity 4 h after administration of [^211At]1 and [^125I]2 in normal mice.

For data set [2] the following is noted: cited from earlier work.
Data set [3] concerns U-87 MG tumor-bearing mice. Further details: method as in PMID 37819452. To be noted: 24-h postinjection, without IPBA; cited from earlier work.
Data set [4] can be described thus: Biodistribution of [^125I]2 and [^67Ga]3 in normal mice with IPBA. Conditions: for tissue uptake at 4 h / tissue uptake dose at 4 h: male, ddY, iv, total radioactivity. Format: in vivo. As to the method: To evaluate the effects of inhibitors in normal mice, [^125I]2 (37 kBq) and [^67Ga]3 (37 kBq) were intravenously coadministered into 6 weeks male ddY mice (29-36 g, Japan SLC, Inc., Hamamatsu, Japan). At 1 h postinjection of radiotracers, sodium 4-(4-iodophenyl)butanoate (IPBA) at 2 (680 µg, 2.2 µmol) or 5 (1.7 mg, 5.5 µmol) molar equivalent of blood albumin was administered. Mice were sacrificed at 4 h post-injection of radiotracers.
Table S2. […] IPBA as an inhibitor was administered at 1 h postinjection of [^125I]2 and [^67Ga]3.

Setting [5] is: normal mice, 4 h after administration, without IPBA.
[6] abbreviates: normal mice, 4 h after administration of [^125I]2 and [^67Ga]3, IPBA 2 eq at 1 h postinjection.
[7] abbreviates: normal mice, 4 h after administration of [^125I]2 and [^67Ga]3, IPBA 5 eq at 1 h postinjection.

Like-named read-outs stand apart in the source and are kept apart here. Marks after values point to notes of the source that are not given here.

The text below walks through data of paper PMC11224111, “Optimizing the pharmacokinetics of an ^211At-labeled RGD peptide with an albumin-binding moiety via the administration of an albumin-binding inhibitor” (European Journal of Nuclear Medicine and Molecular Imaging, 2024).

Regarding `O=C([O-])CCCc1ccc(I)cc1.[Na+]` [IPBA, sodium 4-(4-iodophenyl)butanoate, reference compound], in data set [1], the “Effect of inhibitor on blood radioactivity of [^211At]1” value is “decreased in a dose-dependent manner”.
With `N=C(N)NCCC[C@@H]1NC(=O)[C@H](CCCCNC(=O)[C@H](CCCCN)NC(=O)CN2CCN(CC(=O)O)CCN(CC(=O)O)CCN(CC(=O)O)CC2)NC(=O)[C@@H](Cc2ccccc2)NC(=O)[C@H](CC(=O)O)NC(=O)CNC1=O` [[^67Ga]3, [^67Ga]Ga-DOTA-K-c(RGDfK), metal not drawn], in data set [2] (mouse, in vivo), the “Radioactivity, L. intestine” value is on record as 1.88 (0.65) % injected activity per gram and the “Radioactivity, S. intestine” value is on record as 1.16 (0.15) ^* % injected activity per gram. For the same compound, in data set [2] (setting [5]), the “Radioactivity, Blood” value is listed as 0.09 (0.05) ^*** % injected activity per gram; the “Radioactivity, Bone” value is listed as 0.83 (0.05) ^* % injected activity per gram; the “Radioactivity, Brain” value is recorded as 0.05 (0.00) ^*** % injected activity per gram; the “Radioactivity, Heart” value is given as 0.26 (0.04) ^*** % injected activity per gram. Further, in data set [2] (setting [5]), the “Radioactivity, Kidney” value was 6.61 (0.81) ^* % injected activity per gram; the “Radioactivity, Liver” value is given as 1.15 (0.07) ^** % injected activity per gram; the “Radioactivity, Lung” value is 0.50 (0.04) ^*** % injected activity per gram; the “Radioactivity, Muscle” value is on record as 0.19 (0.02)^ *** % injected activity per gram. In addition, in data set [2] (setting [5]), the “Radioactivity, Neck” value is 0.02 (0.00)^ ** % injected activity; the “Radioactivity, Pancreas” value is on record as 0.40 (0.03)^ *** % injected activity per gram; the “Radioactivity, Spleen” value is 0.64 (0.12) ^*** % injected activity per gram; the “Radioactivity, Stomach” value was 0.44 (0.04)^ * % injected activity. For the same compound, in data set [3], the Tumor accumulation is listed as 1.84 ± 0.09 %IA/g. Also, the tissue uptake at 4 h in data set [4] (mouse, heart, normal mice, 4 h after administration of [^125I]2 and [^67Ga]3, IPBA 5 eq at 1 h postinjection, read-out: Radioactivity, Heart) was 0.29 %ID/g. Besides, the tissue uptake at 4 h in data set [4] (mouse, in vivo, Radioactivity, L. intestine) was 3.07 %ID/g. Moreover, the tissue uptake at 4 h in data set [4] (mouse, in vivo, Radioactivity, S. intestine) was 1.05 %ID/g. Moreover, in data set [4] (mouse, kidney, normal mice, 4 h after administration of [^125I]2 and [^67Ga]3, IPBA 5 eq at 1 h postinjection, read-out: Radioactivity, Kidney), the tissue uptake at 4 h worked out at 8.04 %ID/g. For the same compound, the tissue uptake at 4 h in data set [4] (mouse, liver, normal mice, 4 h after administration of [^125I]2 and [^67Ga]3, IPBA 5 eq at 1 h postinjection, read-out: Radioactivity, Liver) is 1.54 %ID/g. Moreover, the tissue uptake dose at 4 h in data set [4] (mouse, neck, normal mice, 4 h after administration of [^125I]2 and [^67Ga]3, IPBA 2 eq at 1 h postinjection, read-out: Radioactivity, Neck) came out at 0.01 %ID. Moreover, the tissue uptake dose at 4 h in data set [4] (mouse, neck, normal mice, 4 h after administration of [^125I]2 and [^67Ga]3, IPBA 5 eq at 1 h postinjection, read-out: Radioactivity, Neck) amounted to 0.01 %ID. Besides, the tissue uptake dose at 4 h in data set [4] (mouse, stomach, normal mice, 4 h after administration of [^125I]2 and [^67Ga]3, IPBA 2 eq at 1 h postinjection, read-out: Radioactivity, Stomach) was 0.48 %ID. The tissue uptake dose at 4 h in data set [4] (mouse, stomach, normal mice, 4 h after administration of [^125I]2 and [^67Ga]3, IPBA 5 eq at 1 h postinjection, read-out: Radioactivity, Stomach) is 0.59 %ID. Besides, in data set [4] (mouse, in vivo), the “Radioactivity, L. intestine” value is on record as 4.88 (1.50) ^a % injected activity per gram and the “Radioactivity, S. intestine” value is given as 1.76 (0.40) ^*,^ b % injected activity per gram. Also, in data set [4] (setting [6]), the “Radioactivity, Blood” value was 0.03 (0.01) ^***,^ a % injected activity per gram; the “Radioactivity, Bone” value was 0.55 (0.08) ^**,^ a % injected activity per gram; the “Radioactivity, Brain” value is reported as 0.04 (0.01) ^** % injected activity per gram; the “Radioactivity, Heart” value is listed as 0.23 (0.03) ^***,^ a % injected activity per gram. Moreover, in data set [4] (setting [6]), the “Radioactivity, Kidney” value is given as 6.67 (1.04) ^* % injected activity per gram; the “Radioactivity, Liver” value was 1.18 (0.14) ^*** % injected activity per gram; the “Radioactivity, Lung” value is reported as 0.49 (0.05) ^***,^ a % injected activity per gram; the “Radioactivity, Muscle” value is reported as 0.16 (0.02) ^***,^ a % injected activity per gram. In data set [4] (setting [6]), the “Radioactivity, Pancreas” value is on record as 0.33 (0.01) ^*** % injected activity per gram and the “Radioactivity, Spleen” value is 0.64 (0.16) ^*** % injected activity per gram. Moreover, in data set [4] (setting [7]), the “Radioactivity, Blood” value is on record as 0.03 (0.00) ^*,^ a % injected activity per gram; the “Radioactivity, Bone” value was 0.70 (0.12) ^** % injected activity per gram; the “Radioactivity, Brain” value is 0.05 (0.02) ^** % injected activity per gram; the “Radioactivity, Lung” value is on record as 0.55 (0.11) ^*,^ a % injected activity per gram. In addition, in data set [4] (setting [7]), the “Radioactivity, Muscle” value is recorded as 0.23 (0.04) ^*,^ b % injected activity per gram; the “Radioactivity, Pancreas” value is listed as 0.47 (0.13) ^** % injected activity per gram; the “Radioactivity, Spleen” value is on record as 0.90 (0.28) ^* % injected activity per gram. For the same compound, the “Change of biodistribution by IPBA administration” value in data set [4] (normal mice, IPBA 2 or 5 eq at 1 h postinjection) was “did not change biodistribution”.
